Where two headings read alike, the source gives them in different places.
What was measured:
K18PL tau = target: T1, K18PL tau (Homo sapiens, UniProt P10636, P618L); experiment: K18PL tau centrifugation (sedimentation) assay, SDS-PAGE densitometry; assay type: biochemical; details: for Emax: SDS-PAGE of soluble and insoluble fractions after centrifugation, read-out: K18PL Sed. Assay, maximal percent inhibition of K18PL fibrillization
T1 construct: (K18PL; amino acids 244-369); made in house
Procedure, shortened: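 Heparin-induced fibrillization of K18PL tau in sodium acetate buffer with test compound; mixtures were centrifuged and soluble versus insoluble K18PL quantified by SDS-PAGE densitometry. A repeat run centrifuged DMSO- and compound-treated mixtures for 30 min at time zero to remove pelletable material before incubation.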

[1] = Full PK analysis and oral administration, brain and plasma levels; assay type: in vivo, mice; details: for half-life: 2 mg/kg, full PK analysis, FIG. 6A
Procedure: FIG. 6. (A) Brain and plasma level of F4 (CNDR-51362) after i.v. administration at 2 mg/Kg; (B) Brain and plasma level of F4 (CNDR-51362) after oral administration at 5 mg/Kg; (C) Brain and plasma level of F3 (CNDR-51349) after oral administration at 5 mg/Kg
(§1) Test compounds underwent preliminary evaluations of brain penetration, in which 5 mg/Kg of each compound was administered intraperitoneally (i.p.) to a group of three normal mice; drug levels in brain and plasma were determined at a single time-point (1 h) by LC-MS/MS using pre-validated calibration curves. […] However, both esters appeared to have relatively short half-lives in plasma, as indicated by the limited amount of parent drug detected after 1 h from administration of the compounds. […] CNDR-51362 was selected for full PK analysis in which brain and plasma drug levels were determined at six time points (i.e., 30 min, 1 h, 2 h, 4 h, 8 h, and 16 h). The results from this experiment, illustrated in FIG. 6A, confirmed that the total B/P exposure ratio over 16 h is 1.6. […] Finally, in order to investigate the potential for ATPZ congeners to be orally administered, we evaluated brain and plasma level of CNDR-51362 and CNDR-51349 after oral administration of 5 mg/Kg.
(§2) Brain tissue was homogenized in 10 mM ammonium acetate, pH 5.7 (1:2; w/v) using a handheld sonic homogenizer. Plasma was obtained from blood that was collected into a 1.5 mL tube containing 0.5M EDTA solution and subjected to centrifugation for 10 min. at 4500 g at 4° C. Aliquots (50 μL) of brain homogenate or plasma were mixed with 0.2 mL of acetonitrile, centrifuged at 15,000 g, and the resulting supernatants were used for subsequent LC-MS/MS analysis. The LC-MS/MS system was comprised of an Aquity HPLC and a TQ MS that was controlled using MassLynx software (Waters Corporation, Milford, Mass., USA). Compounds were detected using multiple reaction monitoring (MRM) of their specific collision-induced ion transitions. Samples (5 μL) were separated on an Aquity BEH C18 column (1.7 μm, 2.1×50 mm) at 35° C. Operation was in positive electrospray ionization mode, with mobile phase A of 0.1% (v/v) formic acid, and B of either acetonitrile or methanol with 0.1% (v/v) formic acid at a flow rate of 0.6 mL/min using a gradient from 5% to 95% B over two min., followed by wash and re-equilibration steps. The MS was operated with a desolvation temperature of 450° C. and a source temperature of 150° C. Desolvation and source nitrogen gas flows were 900 L/hr and 50 L/hr, respectively. Source and MS/MS voltages were optimized for each compound using the MassLynx auto tune utility. Standard curves were generated for each compound from brain homogenate and plasma samples that had compound added at 4, 40, 400 and 4000 ng/mL and extracted as above. Peak areas were plotted against concentration and a 1/x weighted linear regression curve was used to quantify the tissue-derived samples using the average peak area from triplicate injections.

[2] = Brain and plasma drug levels 1 h after i.p. administration (LC-MS/MS); assay type: in vivo; details: mice, 1 h after i.p. 5 mg/Kg
Procedure: as §1, §2

Aβ(1-42) = target: T2, Aβ(1-42) (Homo sapiens, UniProt P05067); experiment: Aβ(1-42) fibrillization assay (ThT); assay type: biochemical; details: Table 3; highest tested concentration (80 μM); read-out: Aβ42 ThT Assay % Inhib.
T2 construct: Synthetic Aβ(1-42) peptide (rPeptide); purchased rPeptide
T2 sequence (P05067 672-713 limits assumed): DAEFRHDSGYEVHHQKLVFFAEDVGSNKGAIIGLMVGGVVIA

T1 sequence (P10636 561-686 P618L): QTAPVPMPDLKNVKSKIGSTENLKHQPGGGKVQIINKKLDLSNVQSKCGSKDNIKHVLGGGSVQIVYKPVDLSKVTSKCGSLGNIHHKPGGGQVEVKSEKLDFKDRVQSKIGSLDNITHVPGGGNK

SMILES	Emax (K18PL tau) [%]	Kp at 16 h ([1]; mouse, brain and plasma, iv, over 16 h, six time points, FIG. 6A (i.v. 2 mg/Kg), read-out: Total brain-to-plasma (B/P) AUC exposure ratio)	half-life ([1]; mouse, brain, iv, read-out: Elimination half-life in the brain (converted)) [h]	half-life ([1]; mouse, plasma, iv, read-out: Elimination half-life in plasma (converted)) [h]	bioavailability ([1]; mouse, plasma AUC after oral 5 mg/Kg versus i.v. 2 mg/Kg) [%]	Brain concentration after oral administration ([1]; oral 5 mg/Kg, FIGS. 6B and 6C, 5 mg/kg)	B/P, ratio between brain/plasma drug level [2]	Tau Cent. Assay % Soluble (K18PL tau; Table 3, K18PL tau centrifugation assay) [%]	melting point [°C]	inhibition at 80 µM (Aβ(1-42)) [%]	B/P, ratio between brain/plasma drug level ([2]; 5 mg/kg)	B/P, ratio between brain/plasma drug level ([2]; listed as CNDR-51346, 5 mg/kg)
Nc1scc2c(C(=O)NC3CC3)nn(-c3ccc(Cl)cc3)c(=O)c12 [CNDR-51362, 5-Amino-3-(4-chlorophenyl)-N-cyclopropyl-4-oxo-3,4-dihydrothieno[3,4-d]pyridazine-1-carboxamide]	69	1.6	~9.5	~7.4	~64	significant brain concentrations	1.6					
CCOC(=O)c1nn(-c2ccc(Cl)cc2)c(=O)c2c(N)scc12 [Compound 17, Ethyl 5-amino-3-(4-chlorophenyl)-4-oxo-3,4-dihydrothieno[3,4-d]pyridazine-1-carboxylate]	70							62	189 to 191	41	3.3	comparatively higher B/P ratio
